Laboratory results reported in US11479556B1, “Bifunctional compounds for degrading BTK via ubiquitin proteosome pathway” (NURIX THERAPEUTICS, INC., priority 2018, dated 2022).

Biological target: T1, BTK (Homo sapiens, UniProt Q06187)
T1 construct: endogenous in cells; host or cells: TMD8 cells
Test: Cellular BTK HTRF assay (BTK degradation) in TMD8 cells
Type: cell-based
Conditions: four hours incubation, Total-BTK HTRF relative to DMSO-treated cells
Protocol: Example 66: BTK Degradation Assay
TMD8 cells were obtained from Tokyo Medical and Dental University and were grown in alpha-MEM (Fisher 12571063) supplemented with 10% heat-inactivated FBS (Corning Premium Fetal Bovine Serum from Fisher, MT35015CV).
Compounds of the present invention were added to 50,000 TMD8 cells in round-bottom 96 well plates with a final DMSO concentration of […] and were incubated at 37° C. 5% CO2 for four hours. BTK levels were determined using Cisbio Total-BTK HTRF ([…] Time-Resolved Fluorescence) kit (63ADK064PEG) according to manufacturer's protocol. Briefly, cells were incubated in 1× supplied lysis buffer for 30 minutes. In an opaque white low volume 96 well plate (Cisbio, 66PL96005), cell lysate was combined with two different specific BTK antibodies, one conjugated with Eu^3+-Cryptate FRET donor and one conjugated with d2 FRET acceptor. Assay controls include wells containing cell lysate with only the Eu^3+-Cryptate FRET donor antibody and wells containing both HTRF antibodies and lysis buffer without cells or control lysate provided by Cisbio. HTRF ratio was calculated as (acceptor signal at 665 nm/donor signal at 620 nm)×10^4. Background HTRF levels were determined from the control well containing the donor, but no acceptor, antibody. Background HTRF levels were subtracted from all samples. Readouts were reported as HTRF levels relative to HTRF levels of DMSO-treated cells. Four-parameter non-linear regressions were performed in GraphPad Prism 7.02 to obtain DC50 values. DC50 values are provided in Table 3, wherein A<5.0 nM, 5.0 nM≤B≤15 nM, and 15 nM<C.

T1 sequence (Q06187 whole entry): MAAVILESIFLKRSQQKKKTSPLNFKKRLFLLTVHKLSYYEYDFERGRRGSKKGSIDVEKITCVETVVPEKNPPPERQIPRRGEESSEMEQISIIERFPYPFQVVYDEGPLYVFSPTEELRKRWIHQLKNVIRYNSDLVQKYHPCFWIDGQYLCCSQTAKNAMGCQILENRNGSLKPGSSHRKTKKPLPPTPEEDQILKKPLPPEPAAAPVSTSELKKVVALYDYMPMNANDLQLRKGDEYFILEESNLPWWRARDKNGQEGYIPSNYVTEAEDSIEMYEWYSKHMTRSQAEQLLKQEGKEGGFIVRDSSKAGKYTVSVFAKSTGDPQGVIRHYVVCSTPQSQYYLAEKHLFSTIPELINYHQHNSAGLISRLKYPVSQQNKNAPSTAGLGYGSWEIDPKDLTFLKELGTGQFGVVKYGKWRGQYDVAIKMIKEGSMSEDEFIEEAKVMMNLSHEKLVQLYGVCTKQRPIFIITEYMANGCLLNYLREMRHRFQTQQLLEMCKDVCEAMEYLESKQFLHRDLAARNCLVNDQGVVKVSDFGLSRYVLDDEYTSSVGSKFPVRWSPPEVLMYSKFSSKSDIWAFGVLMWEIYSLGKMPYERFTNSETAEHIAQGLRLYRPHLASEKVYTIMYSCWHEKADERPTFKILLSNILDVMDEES

Structure (SMILES) | DC50
CN1CCN([C@@H]2CCCN(c3cnc(C(N)=O)c(Nc4ccc(N5CCC6(CC5)CCN(c5ccc7c(c5)C(=O)N(C5CCC(=O)NC5=O)C7=O)CC6)cc4)n3)C2)C1=O (some centres unmarked) [Compound 55] | < 5 nM
CN1CCN([C@@H]2CCCN(c3cnc(C(N)=O)c(Nc4ccc(N5CCC6(CCN(CCCCc7cccc8c7CN(C7CCC(=O)NC7=O)C8=O)CC6)CC5)cc4)n3)C2)C1=O (some centres unmarked) [Compound 56] | < 5 nM
CN1CCN([C@@H]2CCCN(c3cnc(C(N)=O)c(Nc4ccc(N5CCC6(CCN(C(=O)CCOCCCc7cccc8c7CN(C7CCC(=O)NC7=O)C8=O)CC6)CC5)cc4)n3)C2)C1=O (stereo partly drawn) [Compound 57, 3-((4-(9-(3-(3-(2-(2,6-dioxopiperidin-3-yl)-1-oxoisoindolin-4-yl)propoxy)propanoyl)-3,9-diazaspiro[5.5]undecan-3-yl)phenyl)amino)-5-((R)-3-(3-methyl-2-oxoimidazolidin-1-yl)piperidin-1-yl)pyrazine-2-carboxamide] | < 5 nM
CN1CCN([C@@H]2CCCN(c3cnc(C(N)=O)c(Nc4ccc(C5(C)CCN(c6ccc7c(c6)C(=O)N(C6CCC(=O)NC6=O)C7=O)CC5)cc4)n3)C2)C1=O (some centres unmarked) [Compound 58] | 5 to 15 nM
CN1CCN([C@@H]2CCCN(c3cnc(C(N)=O)c(Nc4ccc(N5CCN(C[C@@H]6CCN(c7ccc8c(c7)C(=O)N(C7CCC(=O)NC7=O)C8=O)C6)CC5)cc4)n3)C2)C1=O (some centres unmarked) [Compound 59] | < 5 nM
CN1CCN([C@@H]2CCCN(c3cnc(C(N)=O)c(Nc4ccc(N5CCN(CC6CN(c7ccc8c(c7)C(=O)N(C7CCC(=O)NC7=O)C8=O)C6)CC5)cc4)n3)C2)C1=O (some centres unmarked) [Compound 60] | < 5 nM
CN1CCN([C@@H]2CCCN(c3cnc(C(N)=O)c(Nc4cccc(NC(=O)CCCN5CCN(c6ccc7c(c6)C(=O)N(C6CCC(=O)NC6=O)C7=O)CC5)c4)n3)C2)C1=O (some centres unmarked) [Compound 62] | > 15 nM
CN1CCN([C@@H]2CCCN(c3cnc(C(N)=O)c(Nc4cccc(NC(=O)[C@H]5C[C@@H](OCCCc6cccc7c6C(=O)N(C6CCC(=O)NC6=O)C7=O)C5)c4)n3)C2)C1=O (some centres unmarked) [Compound 63] | > 15 nM
CN1CCN([C@@H]2CCCN(c3cnc(C(N)=O)c(Nc4ccc(CCCNc5ccc6c(c5)C(=O)N(C5CCC(=O)NC5=O)C6=O)cc4)n3)C2)C1=O (some centres unmarked) [Compound 65] | > 15 nM
CN1CCN([C@@H]2CCCN(c3cnc(C(N)=O)c(Nc4ccc(C5(C)CCN(C6CC(Nc7cccc8c7C(=O)N(C7CCC(=O)NC7=O)C8=O)C6)CC5)cc4)n3)C2)C1=O (some centres unmarked) [Compound 66] | < 5 nM
NC(=O)c1ncc(N2CCCCC2)nc1Nc1ccc(N2CCN(C(=O)CCOCCCc3cccc4c3CN(C3CCC(=O)NC3=O)C4=O)CC2)cc1 (centres unmarked) [Compound 67] | > 15 nM
CN1CCN([C@@H]2CCCN(c3cnc(C(N)=O)c(Nc4ccc(C5CN(CC6CCN(c7ccc8c(=O)n(C9CCC(=O)NC9=O)ccc8c7)CC6)C5)cc4)n3)C2)C1=O (some centres unmarked) [Compound 69] | < 5 nM
CN1CCN([C@@H]2CCCN(c3cnc(C(N)=O)c(Nc4ccc(N5CC6CN(Cc7ccc8c(c7)C(=O)N(C7CCC(=O)NC7=O)C8=O)CC6C5)cc4)n3)C2)C1=O (some centres unmarked) [Compound 76] | 5 to 15 nM
CN1CCN([C@H]2CCCN(c3cnc(C(N)=O)c(Nc4cnn(C5CCN(C6CCN(c7ccc8c(c7)C(=O)N(C7CCC(=O)NC7=O)C8=O)CC6)CC5)c4)n3)C2)C1=O (some centres unmarked) [Compound 77] | < 5 nM
CN1CCN([C@H]2CCCN(c3cnc(C(N)=O)c(Nc4ccc(N5CC6CN(c7ccc8c(c7)C(=O)N(C7CCC(=O)NC7=O)C8=O)CC6C5)cc4)n3)C2)C1=O (some centres unmarked) [Compound 79] | > 15 nM
CN1CCN([C@H]2CCCN(c3cnc(C(N)=O)c(Nc4ccc(N5CCC6(CCN(c7ccc8c(c7)C(=O)N(C7CCC(=O)NC7=O)C8=O)CC6)CC5)nc4)n3)C2)C1=O (some centres unmarked) [Compound 80] | < 5 nM
CN1CCN([C@H]2CCCN(c3cnc(C(N)=O)c(Nc4ccc(N5CCC6(CC5)CCN(c5ccc7c(c5)C(=O)N(C5CCC(=O)NC5=O)C7=O)CC6)cn4)n3)C2)C1=O (some centres unmarked) [Compound 81] | > 15 nM
CN1CCN([C@@H]2CCCN(c3cnc(C(N)=O)c(Nc4ccc(N5CCN(CC6CN(c7ccc8c(c7)C(=O)N(C7CCC(=O)NC7=O)C8=O)C6)CC5)cc4)n3)C2)C1=O (some centres unmarked) [Compound 82] | < 5 nM
CN1CCN([C@H]2CCCN(c3cnc(C(N)=O)c(Nc4cnn(C5CCN(CC6CCN(c7ccc8c(c7)C(=O)N(C7CCC(=O)NC7=O)C8=O)CC6)CC5)c4)n3)C2)C1=O (some centres unmarked) [Compound 83] | < 5 nM
CN1CCN([C@H]2CCCN(c3cnc(C(N)=O)c(Nc4cnn(C5CCN(CCCc6cccc7c6CN(C6CCC(=O)NC6=O)C7=O)CC5)c4)n3)C2)C1=O (some centres unmarked) [Compound 84] | > 15 nM
CN1CCN([C@@H]2CCCN(c3cnc(C(N)=O)c(Nc4ccc(C5CN(CC6CN(c7ccc8c(c7)C(=O)N(C7CCC(=O)NC7=O)C8=O)C6)C5)cc4)n3)C2)C1=O (some centres unmarked) [Compound 85] | < 5 nM

Structure (SMILES) | DC50
CN1CCN([C@@H]2CCCN(c3cnc(C(N)=O)c(Nc4ccc(C5CCN(C6CN(Cc7ccc8c(c7)CN(C7CCC(=O)NC7=O)C8=O)C6)CC5)cc4)n3)C2)C1=O (some centres unmarked) [Compound 86] | < 5 nM
CN1CCN([C@H]2CCCN(c3cnc(C(N)=O)c(Nc4ccc(C5CCN(C[C@H]6CCCN6c6ccc7c(c6)C(=O)N(C6CCC(=O)NC6=O)C7=O)CC5)cc4)n3)C2)C1=O (some centres unmarked) [Compound 87] | < 5 nM
CN1CCN([C@H]2CCCN(c3cnc(C(N)=O)c(Nc4ccc(N5CCN(CCCCc6cccc7c6CN(C6CCC(=O)NC6=O)C7=O)CC5)cn4)n3)C2)C1=O (some centres unmarked) [Compound 88] | > 15 nM
CN1CCN([C@@H]2CCCN(c3cnc(C(N)=O)c(Nc4ccc(N5CCN(C[C@H]6CCN(c7ccc8c(c7)C(=O)N(C7CCC(=O)NC7=O)C8=O)C6)CC5)cn4)n3)C2)C1=O (some centres unmarked) [Compound 89] | 5 to 15 nM
CN1CCN([C@H]2CCCN(c3cnc(C(N)=O)c(Nc4ccc(C(=O)N5CCN(Cc6ccc7c(c6)C(=O)N(C6CCC(=O)NC6=O)C7=O)CC5)cc4)n3)C2)C1=O (some centres unmarked) [Compound 90] | 5 to 15 nM
CN1CCN([C@@H]2CCCN(c3cnc(C(N)=O)c(Nc4ccc(N5CC6CN(CC7CN(c8ccc9c(c8)C(=O)N(C8CCC(=O)NC8=O)C9=O)C7)CC6C5)cc4)n3)C2)C1=O (some centres unmarked) [Compound 91] | < 5 nM
CN1CCN([C@@H]2CCCN(c3cnc(C(N)=O)c(Nc4ccc(N5CCC6(CC5)CN(Cc5ccc7c(c5)C(=O)N(C5CCC(=O)NC5=O)C7=O)C6)cc4)n3)C2)C1=O (some centres unmarked) [Compound 93] | < 5 nM
CN1CCN([C@H]2CCCN(c3cnc(C(N)=O)c(Nc4ccc(N5CCCC6(CN(Cc7ccc8c(c7)C(=O)N(C7CCC(=O)NC7=O)C8=O)C6)C5)cc4)n3)C2)C1=O (some centres unmarked) [Compound 94] | < 5 nM
CN1CCN([C@@H]2CCCN(c3cnc(C(N)=O)c(Nc4ccc(N5CC[C@@H]6CCN(Cc7ccc8c(c7)C(=O)N(N7CCC(=O)NC7=O)C8=O)C[C@@H]6C5)cc4)n3)C2)C1=O [Compound 95] | 5 to 15 nM
CN1CCN([C@@H]2CCCN(c3cnc(C(N)=O)c(Nc4ccc(N5CCCC6(C5)CN(c5cccc7c5C(=O)N(C5CCC(=O)NC5=O)C7=O)C6)cc4)n3)C2)C1=O (some centres unmarked) [Compound 96] | > 15 nM
CN1CCN([C@H]2CCCN(c3cnc(C(N)=O)c(Nc4ccc(N5CCC6(CC5)CN(c5cccc7c5C(=O)N(C5CCC(=O)NC5=O)C7=O)C6)cc4)n3)C2)C1=O (some centres unmarked) [Compound 97] | > 15 nM
CN1CCN([C@H]2CCCN(c3cnc(C(N)=O)c(Nc4ccc(N5CCN(CC#Cc6ccc7c(c6)C(=O)N(C6CCC(=O)NC6=O)C7)CC5)cc4)n3)C2)C1=O (some centres unmarked) [Compound 98] | < 5 nM
CN1CCN([C@@H]2CCCN(c3cnc(C(N)=O)c(Nc4ccc(N5CCN(Cc6ccc7c(c6)C(=O)N(C6CCC(=O)NC6=O)C7=O)CC5)cc4)n3)C2)C1=O (some centres unmarked) [Compound 100] | > 15 nM
CN1CCN([C@@H]2CCCN(c3cnc(C(N)=O)c(Nc4ccc(N5CCN(C6CN(Cc7ccc8c(c7)C(=O)N(C7CCC(=O)NC7=O)C8=O)C6)CC5)cc4)n3)C2)C1=O (some centres unmarked) [Compound 101] | < 5 nM
CN1CCN([C@H]2CCCN(c3cnc(C(N)=O)c(Nc4ccc(C5(C)CCN([C@H]6C[C@@H](Nc7cccc8c7C(=O)N(C7CCC(=O)NC7=O)C8=O)C6)CC5)cc4)n3)C2)C1=O (some centres unmarked) [Compound 102] | < 5 nM
CN1CCN([C@H]2CCCN(c3cnc(C(N)=O)c(Nc4ccc(C5(C)CCN([C@H]6C[C@H](Nc7cccc8c7C(=O)N(C7CCC(=O)NC7=O)C8=O)C6)CC5)cc4)n3)C2)C1=O (some centres unmarked) [Compound 103] | < 5 nM
CN1CCN([C@@H]2CCCN(c3cnc(C(N)=O)c(Nc4ccc(N5CCC6CCN(Cc7ccc8c(c7)C(=O)N(N7CCC(=O)NC7=O)C8=O)CC6C5)cc4)n3)C2)C1=O (some centres unmarked) [Compound 104] | 5 to 15 nM
CN1CCN([C@@H]2CCCN(c3cnc(C(N)=O)c(Nc4ccc(N5CCC6CCN(c7cccc8c7C(=O)N(N7CCC(=O)NC7=O)C8=O)CC6C5)cc4)n3)C2)C1=O (some centres unmarked) [Compound 105] | > 15 nM
CN1CCN([C@H]2CCCN(c3cnc(C(N)=O)c(Nc4ccc(N5CC[C@H]6CCN(c7ccc8c(c7)C(=O)N(N7CCC(=O)NC7=O)C8=O)C[C@H]6C5)cc4)n3)C2)C1=O [Compound 106] | 5 to 15 nM
CN1CCN([C@H]2CCCN(c3cnc(C(N)=O)c(Nc4ccc(N5CC[C@@H]6CCN(c7ccc8c(c7)C(=O)N(N7CCC(=O)NC7=O)C8=O)C[C@H]6C5)cc4)n3)C2)C1=O [Compound 107] | > 15 nM
